Test results reported in publication PMC2362731, “Phase I study of Carzelesin (U-80,244) given (4-weekly) by intravenous bolus schedule” (British Journal of Cancer, 1999).

How the values were obtained:
[1] = tested on: bone marrow, kidney, liver and spleen; design: method as in EORTC-NDDO, 1992; conditions: ref EORTC-NDDO, 1992; cited from earlier work
[2] = tested on: murine and human tumour xenografts; conditions: ref Li et al, 1992, cited from earlier work
[3] = Ex vivo conversion in blood samples; format: in vitro ADME, human; conditions: if the sample is not immediately cooled in ice-water
Text: Carzelesin (U-80,244, Figure 1A) is a cyclopropylpyrroloindole (CPI) prodrug analogue of CC-1065. […] CPI drugs are a class of compounds with unique DNA interactive properties. These agents fit into the minor groove region of DNA, and the CPI function in the molecule mediates a covalent binding to the N3 position of adenine in A-T rich regions, thus forming DNA adducts in a sequence selective fashion (Hurley et al, 1984; Reynolds et al, 1985). Three new CPIs have now been developed. […] Bizelesin differs from the classical CPI drugs in that it contains two chloromethyl functions, which are both converted (via intramolecular rearrangements) to the CPI alkyl- ating species that interact with DNA. Consequently, this agent is capable of forming DNA interstrand cross-links (Lee et al, 1991). […] Therefore, efforts were directed to modu- late the alkylation rate by the preparation of CPI prodrugs that would require chemical or enzymatic conversion. The activation of Carzelesin is a two-step reaction with hydrolysis of the phenyl- urethane substituent to form the intermediate compound U-76,073, followed by ring closure to form the active product U-76,074 (Figure 1B). […] The concentration of U-76,074 (active metabolite) extended above the lower limit of quantitation (1 ng ml-1) for short periods of time and only at the higher dose levels. […]

CCN(CC)c1ccc2cc(C(=O)Nc3ccc4[nH]c(C(=O)N5C[C@@H](CCl)c6c5cc(OC(=O)Nc5ccccc5)c5[nH]cc(C)c65)cc4c3)oc2c1 [Carzelesin]
organs in which toxicity occurred in preclinical studies [1]: bone marrow, kidney, liver and spleen | efficacy in a broad panel of murine and human tumour xenografts ([2]; compared with adozelesin): more efficacious | efficacy against Lewis lung carcinoma, B16 melanoma, colon 38 carcinoma, colon CX1 adenocarcinoma, lung LX-1 tumour, ovarian 2780 and prostatic DU-145 carcinoma ([2]; Houghton et al, 1995): highly effective | stability in blood sample ex vivo [3]: readily converted to U-76,074 ex vivo
